These results are taken from patent US6100280A, “Narcotic antagonist” (Pola Chemical Industries, Inc., priority 1995, dated 2000).

The target of test [1] is T1, narcotic receptors (cocaine derivative [^3 H]WIN35,428 binding, striatum) (Rattus norvegicus, UniProt P23977).
T1 construct: from tissue; host or cells: striatum of male Wistar rats, crude membranes
Description: Ex vivo binding inhibition assay ([^3 H]WIN35,428, striatum after intraperitoneal administration). Type of test: in vivo, male Wistar rats. To be noted: 30 mg/kg intraperitoneally, 30 minutes after administration, [^3 H]WIN35,428 0.5 nM; control (saline) 0%. How it is done: Ex vivo binding inhibition assay
To each male Wistar rat, 30 mg/kg of compound 15 was intraperitoneally administered. Thirty minutes after administration, rats were decapitated. From each rat, striatum was immediately removed, and its wet weight was measured. The tissue of striatum was homogenized using a polytron together with a 10-fold amount of 50 mM Tris-HCl buffer (pH 7.4) while being cooled on ice. The homogenate was centrifugally separated (20,000 G, 20 minutes, 4° C.), and the resulting pellet was suspended in a mixture of a 20-fold amount (based on the original tissue weight) of 50 mM Tris-HCl and 100 mM NaCl buffer (pH 7.4).
The contents were allowed to react for 2 hours on ice (0-4° C.). Reaction was terminated by passing the contents through a glass filter (GF/B, product of Whatman) which had been immersed in 0.1% BSA solution for at least 40 minutes in advance while aspiration was carried out using a cell harvester, followed by washing three times with 5 ml of 50 mM Tris HCl buffer (pH 7.4). The filter and 10 ml of aquazol 2 (product of NEN) were placed in a vial and allowed to stand overnight. Radioactivity was measured using a liquid scintillation counter. […] Specific binding amounts were determined by subtracting the nonspecific binding amounts from the total binding amounts. Control accounts for the sole use of a saline solution administered to rats intraperitoneally. […]

Test [2] addresses T2, (cocaine derivative [^3 H]WIN35,428 binding, striatum) (Rattus norvegicus, UniProt P23977).
T2 construct: from tissue; host or cells: striatum of male Wistar rats, crude membranes
Briefly: In vitro binding inhibition assay against a cocaine derivative ([^3 H]WIN35,428), striatum crude membrane. As to conditions: [^3 H]WIN35,428 0.5 nM, 2 hours on ice (0-4° C.), pH 7.4, Hill plotting, read-out: 50% Inhibition concentration. On the set-up: species or system male Wistar rats. How it is done:
Male Wistar rats were decapitated. From each rat, striatum was immediately removed, and its wet weight was measured. The tissue of striatum was homogenized using a polytron together with a 10-fold amount of 50 mM Tris-HCl buffer (pH 7.4) while being cooled on ice. The homogenate was centrifugally separated (38,700 G, 20 minutes, 4° C.), and the resulting pellet was suspended in a mixture of a 40-fold amount (based on the original tissue weight) of 50 mM Tris-HCl and 100 mM NaCl buffer (pH 7.4).
The contents were allowed to react for 2 hours on ice (0-4° C.). Reaction was terminated by passing the contents through a glass filter (GF/B, product of Whatman) which had been immersed in 0.1% BSA solution for at least 40 minutes in advance while aspiration was carried out using a cell harvester, followed by washing three times with 5 ml of 50 mM Tris HCl buffer (pH 7.4). The filter and 10 ml of aquazol 2 (product of NEN) were placed in a vial and allowed to stand overnight. Radioactivity was measured using a liquid scintillation counter. […] Specific binding amounts were determined by subtracting the nonspecific binding amounts from the total binding amounts. Fifty(50)% inhibition concentrations were calculated using Hill plotting.

T2 sequence (P23977 whole entry): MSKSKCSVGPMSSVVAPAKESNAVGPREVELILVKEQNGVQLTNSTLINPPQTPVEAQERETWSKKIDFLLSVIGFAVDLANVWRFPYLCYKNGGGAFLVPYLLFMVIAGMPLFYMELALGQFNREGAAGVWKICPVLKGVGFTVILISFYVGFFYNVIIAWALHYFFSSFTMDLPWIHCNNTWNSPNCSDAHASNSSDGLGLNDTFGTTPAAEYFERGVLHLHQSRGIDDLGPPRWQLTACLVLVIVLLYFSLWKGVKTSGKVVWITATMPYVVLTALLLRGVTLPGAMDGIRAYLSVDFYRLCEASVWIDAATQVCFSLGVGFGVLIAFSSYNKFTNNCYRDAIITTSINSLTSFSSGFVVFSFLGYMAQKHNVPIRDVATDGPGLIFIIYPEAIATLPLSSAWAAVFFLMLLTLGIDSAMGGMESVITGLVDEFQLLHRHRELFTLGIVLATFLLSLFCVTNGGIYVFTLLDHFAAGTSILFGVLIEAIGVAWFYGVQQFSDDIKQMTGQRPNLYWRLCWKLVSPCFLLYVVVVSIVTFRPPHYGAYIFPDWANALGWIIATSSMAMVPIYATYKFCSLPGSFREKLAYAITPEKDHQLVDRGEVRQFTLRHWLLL
T1 sequence (P23977 whole entry): as above

Consider `OC(CNc1ccccc1)CN1CCN(CCCC(c2ccc(F)cc2)c2ccc(F)cc2)CC1` (single isomer, unassigned) [Compound 15, (--)-1-[4,4-bis(4-fluorophenyl)butyl]-4-(2-hydroxy-3-phenylaminopropyl)-piperazine.2HCl], for which, in test [1], the binding inhibitory ratio is on record as 86.1%. Moreover, the IC50 in test [2] was 37.6 nM. For `OC(CNc1ccccc1)CN1CCN(CCCC(c2ccc(F)cc2)c2ccc(F)cc2)CC1` (single isomer, unassigned; (+)) [Compound 16, (+)-1-[4,4-bis(4-fluorophenyl)butyl)-4-(2-hydroxy-3-phenylaminopropyl)-piperazine.2HCl], the IC50 in test [2] is 52.6 nM. As for `OC(CNc1ccccc1)CN1CCN(CCCC(c2ccc(F)cc2)c2ccc(F)cc2)CC1` (stereo not shown) [Compound 1, 1-[4,4-bis(4-fluorophenyl)-butyl]-4-(2-hydroxy-3-phenylaminopropyl)piperazine.2HCl], the IC50 in test [2] worked out at 44.8 nM.

On to `OC(CNc1ccccc1)CN1CCN(C(c2ccc(F)cc2)c2ccc(F)cc2)CC1` (stereo not shown) [Compound 2, 1-[bis(4-fluorophenyl)-methyl]-4-[2-hydroxy-3-phenylaminopropyl)-piperazine.2HCl], for which, in test [2], the IC50 worked out at 51.6 nM.

Turning to `OC(CNCc1ccccc1)CN1CCN(CCCC(c2ccc(F)cc2)c2ccc(F)cc2)CC1` (stereo not shown) [Compound 3, 1-[4,4-bis(4-fluorophenyl)-butyl]-4-(2-hydroxy-3-benzylaminopropyl)-piperazine.2HCl], the IC50 in test [2] amounted to 31.7 nM.

`CC(=O)N(CC(O)CN1CCN(CCCC(c2ccc(F)cc2)c2ccc(F)cc2)CC1)c1ccccc1` (stereo not shown) [Compound 4]: the IC50 in test [2] was 49.5 nM. In the case of `CN(CC(O)CN1CCN(CCCC(c2ccc(F)cc2)c2ccc(F)cc2)CC1)c1ccccc1` (stereo not shown) [Compound 6, 1-[4,4-bis(4-fluorophenyl)-butyl]-4-[2-hydroxy-3-(N-methyl-N-phenylamino)-propyl]piperazine.2C4H4O4], the IC50 in test [2] stood at 34.9 nM.

For `CC(=O)OC(CNc1ccccc1)CN1CCN(CCCC(c2ccc(F)cc2)c2ccc(F)cc2)CC1` (stereo not drawn) [Compound 7, l-(2-acetoxy-3-phenylamino-propyl)-4-[4,4-bis(4-fluorophenyl)butyl]piperazine.2C4H4O4], the IC50 in test [2] turned out to be 41.2 nM. For `COC(CNc1ccccc1)CN1CCN(CCCC(c2ccc(F)cc2)c2ccc(F)cc2)CC1` (stereo not shown) [Compound 8, 1-[4,4-bis(4-fluorophenyl)-butyl]-4-(2-methoxy-3-phenylaminopropyl)piperazine.2HCl], the IC50 in test [2] was 23.7 nM. Take `OC(CNc1ccc(F)cc1)CN1CCN(CCCC(c2ccc(F)cc2)c2ccc(F)cc2)CC1` (stereo not shown) [Compound 9, 1-[4,4-bis(4-fluorophenyl)-butyl]-4-[3-(4-fluorophenylamino)-2-hydroxypropyl]-piperazine.2HCl]: the IC50 in test [2] came to 46.8 nM. Consider `COc1cc(NCC(O)CN2CCN(CCCC(c3ccc(F)cc3)c3ccc(F)cc3)CC2)cc(OC)c1OC` (stereo not shown) [Compound 11, 1-[4,4-bis(4-fluorophenyl)-butyl]-4-[2-hydroxy-3-(3,4,5-trimethoxyphenylamino)-propyl]piperazine.2C4H4O4], for which, in test [2], the IC50 turned out to be 197 nM. As for `COc1ccc(NCC(O)CN2CCN(CCCC(c3ccc(F)cc3)c3ccc(F)cc3)CC2)cc1` (stereo not shown) [Compound 13, 1-[4,4-bis(4-fluorophenyl)-butyl]-4-[2-hydroxy-3-(4-methoxyphenylamino)propyl]-piperazine.2HCl], in test [2], the IC50 is 105 nM. Consider `OC(CNc1ccncc1)CN1CCN(CCCC(c2ccc(F)cc2)c2ccc(F)cc2)CC1` (stereo not shown) [Compound 17, 1-[4,4-bis(4-fluorophenyl)-butyl)-4-[2-hydroxy-3-(4-pyridylamino)propyl]-piperazine.2C4H4O4], for which, in test [2], the IC50 came out at 45 nM. As to `OC(CNc1ccccc1)CN1CCN(CCC(c2ccc(F)cc2)c2ccc(F)cc2)CC1` (stereo not shown) [Compound 18, 1-[3,3-bis(4-fluorophenyl)-propyl]-4-[2-hydroxy-3-phenylaminopropyl)piperazine], the IC50 in test [2] was determined as 15 nM.

Take `OC(CNc1ccccc1)CN1CCN(CC(c2ccccc2)c2ccccc2)CC1` (stereo not shown) [Compound 19, 1-[2,2-diphenylethyl)-4-(2-hydroxy-3-phenylamino-propyl)piperazine.2HCl]: in test [2], the IC50 amounted to 72.2 nM.

Take `O=[N+]([O-])c1ccc(NCC(O)CN2CCN(CCCC(c3ccc(F)cc3)c3ccc(F)cc3)CC2)cc1` (stereo not shown) [Compound 20, 1-[4,4-bis(4-fluorophenyl)butyl]-4-[2-hydroxy-3-(4-nitrophenylamino)propyl]-piperazine.2HCl]: in test [2], the IC50 came out at 55.8 nM. For `OC(CNc1ccccc1)CN1CCN(CCCCC(c2ccc(F)cc2)c2ccc(F)cc2)CC1` (stereo not shown) [Compound 21, 1-[5,5-bis(4-flurophenyl)-pentyl]-4-(2-hydroxy-3-phenylaminopropyl)piperazine.2HCl], the IC50 in test [2] is 41.2 nM. On the same count and under the same terms, to `CC(C)(C)c1cc(NCC(O)CN2CCN(CCCC(c3ccc(F)cc3)c3ccc(F)cc3)CC2)cc(C(C)(C)C)c1O` (stereo not shown) [Compound 22, 1-[4,4-bis(4-flurophenyl)-butyl]-4-[3-(3,5-di-tert-butyl-4-hydroxyphenylamino)-2-hydroxypropyl]piperazine..3C4H4O4] belongs 306 nM. Regarding `Nc1ccc(NCC(O)CN2CCN(CCCC(c3ccc(F)cc3)c3ccc(F)cc3)CC2)cc1` (stereo not shown) [Compound 23, 1-[3-(4-aminophenylamino)-2-hydroxypropyl]-4-[4,4-bis(4-fluorophenyl)butyl]-piperazine.3C4H4O4], the IC50 in test [2] is 534 nM. For `Oc1ccc(NCC(O)CN2CCN(CCCC(c3ccc(F)cc3)c3ccc(F)cc3)CC2)cc1` (stereo not shown) [Compound 25, 1-[4,4-bis(4-flurophenyl)-butyl]-4-[2-hydroxy-3-(4-hydroxyphenylamino)propyl]-piperazine.2C4H4O4], the IC50 in test [2] worked out at 23.7 nM. With `COC(=O)[C@H]1[C@@H](c2ccccc2)C[C@@H]2CC[C@H]1N2C` [WIN35,065-2, reference compound], the IC50 in test [2] came to 118 nM.
